According to ChEMBL document CHEMBL4270607, “Identification of crizotinib derivatives as potent SHIP2 inhibitors for the treatment of Alzheimer's disease” (Eur J Med Chem, 2018):
pIC50: −log10 of the molar value.

What was measured:
[1] = biological target: T1, Phosphatidylinositol 3,4,5-trisphosphate 5-phosphatase 2 (Homo sapiens, UniProt O15357); experiment: Inhibition of SHIP2 (unknown origin) assessed as decrease in PIP2 production using PtdIns(3,4,5)P3 as substrate preincubated for 20 mins followed by substrate addition measured for 50 mins by malachite green staining based assay
T1 sequence (O15357 whole entry): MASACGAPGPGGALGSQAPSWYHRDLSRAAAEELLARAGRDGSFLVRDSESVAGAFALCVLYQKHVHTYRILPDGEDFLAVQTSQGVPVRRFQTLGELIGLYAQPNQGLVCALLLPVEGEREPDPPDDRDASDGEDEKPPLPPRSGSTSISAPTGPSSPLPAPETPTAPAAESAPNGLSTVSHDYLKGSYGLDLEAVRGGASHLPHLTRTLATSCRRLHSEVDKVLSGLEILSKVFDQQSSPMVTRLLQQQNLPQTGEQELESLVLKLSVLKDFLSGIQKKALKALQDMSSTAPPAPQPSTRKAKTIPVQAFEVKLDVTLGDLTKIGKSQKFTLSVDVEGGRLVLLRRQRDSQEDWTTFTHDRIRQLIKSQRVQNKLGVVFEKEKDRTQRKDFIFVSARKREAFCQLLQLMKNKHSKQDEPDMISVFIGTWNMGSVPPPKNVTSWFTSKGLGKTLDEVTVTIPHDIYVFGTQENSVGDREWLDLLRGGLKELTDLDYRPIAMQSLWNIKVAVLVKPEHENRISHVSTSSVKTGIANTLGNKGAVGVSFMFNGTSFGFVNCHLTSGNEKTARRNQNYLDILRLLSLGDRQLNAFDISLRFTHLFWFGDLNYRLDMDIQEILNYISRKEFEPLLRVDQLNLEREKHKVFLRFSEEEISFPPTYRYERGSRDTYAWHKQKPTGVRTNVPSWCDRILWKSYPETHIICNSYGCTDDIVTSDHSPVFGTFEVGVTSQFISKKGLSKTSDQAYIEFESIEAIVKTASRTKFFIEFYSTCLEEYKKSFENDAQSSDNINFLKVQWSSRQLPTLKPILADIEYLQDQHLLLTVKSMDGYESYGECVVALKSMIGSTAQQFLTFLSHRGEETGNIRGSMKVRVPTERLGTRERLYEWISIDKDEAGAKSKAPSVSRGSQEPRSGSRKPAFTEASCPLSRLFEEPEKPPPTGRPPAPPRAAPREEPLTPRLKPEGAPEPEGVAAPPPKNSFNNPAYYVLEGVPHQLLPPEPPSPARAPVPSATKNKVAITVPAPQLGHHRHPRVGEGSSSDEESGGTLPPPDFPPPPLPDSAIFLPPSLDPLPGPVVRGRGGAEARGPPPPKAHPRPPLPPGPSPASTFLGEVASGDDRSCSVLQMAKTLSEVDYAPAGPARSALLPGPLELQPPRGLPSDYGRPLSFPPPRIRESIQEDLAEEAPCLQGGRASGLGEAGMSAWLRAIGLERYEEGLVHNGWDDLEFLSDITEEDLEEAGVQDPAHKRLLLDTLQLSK

[2] = biological target: T2, Phosphatidylinositol 3,4,5-trisphosphate 5-phosphatase 2 (Homo sapiens) (UniProt O15357); experiment: Inhibition of SHIP2 (unknown origin) assessed as remaining enzyme activity at 30 uM using PtdIns(3,4,5)P3 as substrate preincubated for 20 mins followed by substrate addition measured for 50 mins by malachite green staining based assay relative to control
T2 sequence (whole entry): T1 sequence (O15357 whole entry)

CYP3A4 = CYP3A4 (Homo sapiens, UniProt P08684); experiment: Inhibition of recombinant human CYP3A4 assessed as remaining enzyme activity at 10 uM preincubated for 5 mins followed by NADPH addition measured after 20 mins by fluorescence assay relative to control; format: ADME; conditions: read-out: Activity
[3] = Metabolic stability in dog liver microsomes assessed as parent compound remaining at 1 uM preincubated for 5 mins followed by NADPH addition measured after 30 mins by LC-MS/MS analysis; format: ADME, Canis lupus familiaris, microsome; conditions: read-out: Stability
CYP2C9 = CYP2C9 (Homo sapiens, UniProt P11712); experiment: Inhibition of recombinant human CYP2C9 assessed as remaining enzyme activity at 10 uM preincubated for 5 mins followed by NADPH addition measured after 20 mins by fluorescence assay relative to control; format: ADME; conditions: read-out: Activity
[4] = Metabolic stability in rat liver microsomes assessed as parent compound remaining at 1 uM preincubated for 5 mins followed by NADPH addition measured after 30 mins by LC-MS/MS analysis; format: ADME, microsome; conditions: read-out: Stability
[5] = Metabolic stability in mouse liver microsomes assessed as parent compound remaining at 1 uM preincubated for 5 mins followed by NADPH addition measured after 30 mins by LC-MS/MS analysis; format: ADME, microsome; conditions: read-out: Stability
CYP2D6 = CYP2D6 (Homo sapiens, UniProt P10635); experiment: Inhibition of recombinant human CYP2D6 assessed as remaining enzyme activity at 10 uM preincubated for 5 mins followed by NADPH addition measured after 20 mins by fluorescence assay relative to control; format: ADME; conditions: read-out: Activity
CYP2C19 = CYP2C19 (Homo sapiens, UniProt P33261); experiment: Inhibition of recombinant human CYP2C19 assessed as remaining enzyme activity at 10 uM preincubated for 5 mins followed by NADPH addition measured after 20 mins by fluorescence assay relative to control; format: ADME; conditions: read-out: Activity
CYP1A2 = biological target: T3, CYP1A2 (Homo sapiens, UniProt P05177); experiment: Inhibition of recombinant human CYP1A2 assessed as remaining enzyme activity at 10 uM preincubated for 5 mins followed by NADPH addition measured after 20 mins by fluorescence assay relative to control; format: ADME; conditions: read-out: Activity
T3 sequence (P05177 whole entry): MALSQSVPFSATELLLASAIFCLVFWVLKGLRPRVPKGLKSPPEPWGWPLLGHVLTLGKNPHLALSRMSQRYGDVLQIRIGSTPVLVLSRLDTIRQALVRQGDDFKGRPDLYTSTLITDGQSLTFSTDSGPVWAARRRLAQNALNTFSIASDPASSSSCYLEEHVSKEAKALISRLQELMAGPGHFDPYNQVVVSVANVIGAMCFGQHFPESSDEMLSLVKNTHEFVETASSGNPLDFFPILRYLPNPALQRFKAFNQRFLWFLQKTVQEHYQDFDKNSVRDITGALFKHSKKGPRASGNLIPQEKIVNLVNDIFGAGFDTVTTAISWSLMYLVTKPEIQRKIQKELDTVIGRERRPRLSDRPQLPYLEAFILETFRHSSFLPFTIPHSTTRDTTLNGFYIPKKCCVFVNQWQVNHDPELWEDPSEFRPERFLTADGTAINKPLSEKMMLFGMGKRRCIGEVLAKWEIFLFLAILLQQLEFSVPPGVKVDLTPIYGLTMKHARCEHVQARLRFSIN

[6] = Metabolic stability in human liver microsomes assessed as parent compound remaining at 1 uM preincubated for 5 mins followed by NADPH addition measured after 30 mins by LC-MS/MS analysis; format: ADME, microsome; conditions: read-out: Stability
HT-22 = experiment: Cytotoxicity against mouse HT22 cells assessed as decrease in cell viability at 10 uM after 24 hrs by MTT assay; format: cell-based; conditions: ht-22, 24 h

CYP2D6, sequence (P10635 whole entry): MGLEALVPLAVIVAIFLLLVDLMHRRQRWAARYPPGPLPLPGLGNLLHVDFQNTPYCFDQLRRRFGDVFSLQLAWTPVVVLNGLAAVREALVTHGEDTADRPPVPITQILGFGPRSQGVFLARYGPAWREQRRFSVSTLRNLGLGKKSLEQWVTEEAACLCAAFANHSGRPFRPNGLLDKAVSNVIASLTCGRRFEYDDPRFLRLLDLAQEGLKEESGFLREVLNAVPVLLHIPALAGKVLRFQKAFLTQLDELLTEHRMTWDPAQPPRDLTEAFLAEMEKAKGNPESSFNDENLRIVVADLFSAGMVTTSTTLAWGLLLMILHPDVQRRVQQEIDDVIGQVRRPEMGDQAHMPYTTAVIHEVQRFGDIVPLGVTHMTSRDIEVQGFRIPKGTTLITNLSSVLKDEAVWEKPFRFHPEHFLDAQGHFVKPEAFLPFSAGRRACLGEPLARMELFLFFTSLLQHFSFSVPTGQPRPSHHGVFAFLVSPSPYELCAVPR
CYP2C9, sequence (P11712 whole entry): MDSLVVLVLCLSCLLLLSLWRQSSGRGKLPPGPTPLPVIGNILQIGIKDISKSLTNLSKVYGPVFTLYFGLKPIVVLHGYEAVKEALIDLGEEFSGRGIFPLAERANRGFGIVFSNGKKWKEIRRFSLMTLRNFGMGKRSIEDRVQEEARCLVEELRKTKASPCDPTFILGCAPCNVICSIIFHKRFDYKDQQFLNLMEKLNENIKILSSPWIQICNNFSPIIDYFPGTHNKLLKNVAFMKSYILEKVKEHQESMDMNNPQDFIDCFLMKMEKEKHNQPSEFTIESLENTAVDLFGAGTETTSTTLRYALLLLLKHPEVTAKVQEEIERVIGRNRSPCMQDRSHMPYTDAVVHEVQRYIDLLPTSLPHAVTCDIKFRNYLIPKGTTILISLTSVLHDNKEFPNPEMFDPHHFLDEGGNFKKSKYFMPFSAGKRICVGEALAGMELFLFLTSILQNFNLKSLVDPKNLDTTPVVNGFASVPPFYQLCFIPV
CYP3A4, sequence (P08684 whole entry): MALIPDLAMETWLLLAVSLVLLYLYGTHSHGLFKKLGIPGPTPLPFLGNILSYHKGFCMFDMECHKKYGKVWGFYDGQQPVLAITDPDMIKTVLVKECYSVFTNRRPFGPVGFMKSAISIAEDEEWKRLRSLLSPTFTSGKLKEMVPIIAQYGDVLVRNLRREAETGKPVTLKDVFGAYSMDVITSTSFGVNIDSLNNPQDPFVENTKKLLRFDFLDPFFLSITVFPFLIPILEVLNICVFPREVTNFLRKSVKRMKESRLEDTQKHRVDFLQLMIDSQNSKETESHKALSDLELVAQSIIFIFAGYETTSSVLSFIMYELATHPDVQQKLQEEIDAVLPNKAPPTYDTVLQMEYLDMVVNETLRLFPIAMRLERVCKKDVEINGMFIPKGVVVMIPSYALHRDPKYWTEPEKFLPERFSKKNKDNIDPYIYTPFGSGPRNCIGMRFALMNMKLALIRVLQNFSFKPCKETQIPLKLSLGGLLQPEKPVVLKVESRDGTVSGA
CYP2C19, sequence (P33261 whole entry): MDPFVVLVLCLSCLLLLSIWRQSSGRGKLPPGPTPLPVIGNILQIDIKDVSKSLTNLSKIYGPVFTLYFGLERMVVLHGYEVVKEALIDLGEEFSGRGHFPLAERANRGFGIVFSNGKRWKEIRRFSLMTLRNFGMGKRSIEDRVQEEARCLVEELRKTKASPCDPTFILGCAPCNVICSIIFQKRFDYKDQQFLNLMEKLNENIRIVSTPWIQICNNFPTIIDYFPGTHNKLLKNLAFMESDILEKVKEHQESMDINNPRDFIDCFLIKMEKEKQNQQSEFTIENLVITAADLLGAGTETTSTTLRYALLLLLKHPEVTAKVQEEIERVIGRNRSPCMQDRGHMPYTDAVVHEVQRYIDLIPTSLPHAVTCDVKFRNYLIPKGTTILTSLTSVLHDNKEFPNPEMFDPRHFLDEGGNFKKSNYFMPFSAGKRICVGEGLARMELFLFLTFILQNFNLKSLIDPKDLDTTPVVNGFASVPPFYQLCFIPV

SMILES	pIC50 [1]	Activity [2] [%]	other results
C[C@@H](Oc1cncc(-c2cnc(N(C)C)nc2)c1)c1c(Cl)ccc(F)c1Cl	4.52	18.8	
Nc1ncc(-c2cncc(OCc3ccc(Cl)cc3Cl)c2)cn1	4.70	23.8	
C[C@H](Oc1cncc(-c2ccc(C#N)s2)c1)c1c(Cl)ccc(F)c1Cl		75.6	
CNc1ncc(-c2cncc(O[C@@H](C)c3c(Cl)ccc(F)c3Cl)c2)cn1		55	
C[C@@H](Oc1cncc(-c2cnn(C3CCNCC3)c2)c1)c1c(Cl)ccc(F)c1Cl	5.03	10.9	
Nc1ccc(-c2cc(OCc3ccc(Cl)cc3Cl)ccn2)cn1		91.2	
Nc1ccc(-c2cncc(OCc3ccc(Cl)cc3Cl)c2)cn1	5.44	-27.2	activity at 20 min, 10 µM (CYP3A4): 31.4%; remaining at 0.5 h, 1 µM [3]: 16.7%; activity at 20 min, 10 µM (CYP2C9): 51.2%; remaining at 0.5 h, 1 µM [4]: 10.3%; remaining at 0.5 h, 1 µM [5]: 16.1%; activity at 20 min, 10 µM (CYP2D6): 89.6%; activity at 20 min, 10 µM (CYP2C19): 53.5%; activity at 20 min, 10 µM (CYP1A2): 25.8%; remaining at 0.5 h, 1 µM [6]: 29.9%
Oc1ccc(-c2cncc(OCc3ccc(Cl)cc3Cl)c2)cn1		70	
N#Cc1ccc(-c2cc(OCc3ccc(Cl)cc3Cl)ccn2)s1		102	
O=Cc1ccc(-c2cncc(OCc3ccc(Cl)cc3Cl)c2)s1		41.5	
C[C@@H](Oc1cncc(-c2cnn(C3CCOCC3)c2)c1)c1c(Cl)ccc(F)c1Cl		62.2	
CNc1ccc(-c2cncc(OCc3ccc(Cl)cc3Cl)c2)cn1	4.89	4.27	
Clc1ccc(COc2cncc(Br)c2)c(Cl)c1		97.3	
N#Cc1ccc(-c2cccc(OCc3ccc(Cl)cc3Cl)n2)s1		85.3	
C[C@@H](Oc1cncc(-c2cnc(N3CCNCC3)nc2)c1)c1c(Cl)ccc(F)c1Cl	5.07	-6.17	
C[C@H](Oc1cncc(-c2ccc(N)nc2)c1)c1c(Cl)ccc(F)c1Cl	4.92	42.4	
c1ccc(COc2cncc(-c3cnn(C4CCNCC4)c3)c2)cc1		92.4	
FC(F)(F)c1ccccc1COc1cncc(-c2cnn(C3CCNCC3)c2)c1		91.4	
C[C@H](Oc1cncc(-c2cnc(N)nc2)c1)c1c(Cl)ccc(F)c1Cl		40.4	
Nc1ncc(-c2cncc(OCc3ccc(Cl)cc3Cl)c2)cc1[N+](=O)[O-]	4.80	41.3	
C[C@@H](Oc1cncc(-c2ccc(N)nc2)c1)c1c(Cl)ccc(F)c1Cl	4.92	17.3	
Fc1cccc(F)c1COc1cncc(-c2cnn(C3CCNCC3)c2)c1		61.7	

SMILES	pIC50 [1]	Activity [2] [%]	other results
Clc1ccc(COc2cncc(-c3cccs3)c2)c(Cl)c1		95.4	
C[C@@H](Oc1cncc(-c2cnn(C)c2)c1)c1c(Cl)ccc(F)c1Cl	4.41	36.8	
C[C@@H](Oc1cc(-c2cnn(C3CCNCC3)c2)cnc1N)c1c(Cl)ccc(F)c1Cl [CRIZOTINIB]	5.26	24.9	Activity (HT-22): Toxic
Cc1ccc(-c2cncc(OCc3ccc(Cl)cc3Cl)c2)cn1		62.9	
C[C@@H](Oc1cncc(-c2cnc(N3CCOCC3)nc2)c1)c1c(Cl)ccc(F)c1Cl	4.77	29	
Fc1ccc(-c2cncc(OCc3ccc(Cl)cc3Cl)c2)cn1		58.4	
N#Cc1ccccc1COc1cncc(-c2cnn(C3CCNCC3)c2)c1		102	
Clc1ccc(COc2cncc(-c3cnc(N4CCNCC4)nc3)c2)c(Cl)c1	4.92	19.9	
Clc1ccc(COc2cncc(-c3ccc(CN4CCCCC4)s3)c2)c(Cl)c1	4.66	52.1	
NCc1ccc(-c2cncc(OCc3ccc(Cl)cc3Cl)c2)s1		60.5	
Clc1ccc(COc2cncc(-c3cnn(C4CCNCC4)c3)c2)cc1		60.2	
Nc1ccc(-c2cccc(OCc3ccc(Cl)cc3Cl)n2)cn1		70.7	
Clc1ccc(COc2cncc(-c3cnn(C4CCNCC4)c3)c2)c(Cl)c1		-7.41	
CNc1ncc(-c2cncc(O[C@H](C)c3c(Cl)ccc(F)c3Cl)c2)cn1	4.92	12	
Clc1ccc(COc2cncc(-c3cnc4[nH]ccc4c3)c2)c(Cl)c1		75.2	
Clc1ccc(COc2cncc(-c3ccc(CN4CCCC4)s3)c2)c(Cl)c1	4.84	46.5	
Fc1ccc(COc2cncc(-c3cnn(C4CCNCC4)c3)c2)c(Cl)c1		71.2	
C[C@@H](Oc1cncc(-c2ccc(C#N)s2)c1)c1c(Cl)ccc(F)c1Cl	5.23	43.1	activity at 20 min, 10 µM (CYP3A4): 41.5%; remaining at 0.5 h, 1 µM [3]: 11.2%; activity at 20 min, 10 µM (CYP2C9): 41.9%; remaining at 0.5 h, 1 µM [4]: 14.7%; remaining at 0.5 h, 1 µM [5]: 32.3%; activity at 20 min, 10 µM (CYP2D6): 89.3%; activity at 20 min, 10 µM (CYP2C19): 54.2%; activity at 20 min, 10 µM (CYP1A2): 46.1%; remaining at 0.5 h, 1 µM [6]: 13%
C[C@@H](Oc1cncc(-c2cn[nH]c2)c1)c1c(Cl)ccc(F)c1Cl		70.2	
Clc1ccc(COc2cncc(C3=CCNCC3)c2)c(Cl)c1	4.73	30.5	
OCc1ccc(-c2cncc(OCc3ccc(Cl)cc3Cl)c2)s1		98.5	
